ChEMBL document CHEMBL1146209, “In-silico fragment-based identification of novel angiogenesis inhibitors” (Bioorg Med Chem Lett, 2007)

Test system: HUVEC
Assay: Cytotoxicity against HUVEC after 24 hrs by MTT assay
Type: cell-based
Conditions: Homo sapiens

Question: With `O=S(=O)(Nc1nccs1)c1ccc(Nc2ccnc3cc(Cl)ccc23)cc1` as the molecule, how does the IC50 read?
Answer: 74 µM

Question: `Clc1ccc(Nc2ccnc3cc(Cl)ccc23)cc1` was tested. Which IC50 did it give?
Answer: 88 µM

Question: How did the IC50 turn out when `O=C1c2ccccc2C(=O)C(CCCc2ccc(Oc3ccccc3)cc2)C1O` (centres undefined) was run?
Answer: 75 µM

Question: Which IC50 does the source give for `O=C1c2ccccc2C(=O)c2c1oc1c2ccc2ccccc21` here?
Answer: 63 µM

Question: How did the IC50 turn out when `O=C(O)c1ccc(Nc2ccnc3cc(Cl)ccc23)cc1O` was run?
Answer: 90 µM

Question: `Oc1ccc(Nc2ccnc3cc(Cl)ccc23)cc1` was tested. Which IC50 did it give?
Answer: 82 µM

Question: How did the IC50 turn out when `COc1ccc(CC(N)C(=O)N(C)C2C(CO)OC(n3cnc4c(N(C)C)ncnc43)C2O)cc1` (centres undefined) was run?
Answer: 100 µM

Question: With `Clc1ccc2c(NC3CCC(NC4CCCCC4)CC3)ccnc2c1` (centres undefined) as the molecule, how does the IC50 read?
Answer: 13 µM

Question: With `O=c1c(-c2ccc(O)cc2)coc2cc(O)cc(O)c12` [GENISTEIN] as the molecule, how does the IC50 read?
Answer: 88 µM
